# From ChEMBL document CHEMBL1201862, “PubChem BioAssay data set” (2004)
#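 Dose response: 5 concentrations. Exposure: 48 h. Format: 96-well plates. Endpoint: linear interpolation; highest concentration if not reached. GI50: concentration for 50% inhibition of growth.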 Calls of active or inactive are those of the source. No stated cut-off is given here; in the data, active = GI50 up to about 1.1 µM and inactive = higher.
# What was measured:
# Experiment in all cases: growth of human tumour cells (NCI), 48 h
# BT-549 = tested on: BT-549
# T47D = tested on: T47D
# DMS-273 = tested on: DMS-273
# HOP-18 = tested on: HOP-18
# KM-20L2 = tested on: KM-20L2
# M19-MEL = tested on: M19-MEL
# SNB-78 = tested on: SNB-78
# LXFL 529 = tested on: LXFL 529
# RXF 631 = tested on: RXF 631
Compound,GI50 (BT-549),GI50 (T47D),further results
CSC(=S)OC1C(CO[Si](C)(C)C(C)(C)C)OC2OC(C)(C)OC21 (stereo not drawn),30.8 µM (inactive),–,–
c1ccc(C2C3=C(c4ccccc4CC3)N3c4cc5c(cc4=NC34CCCCC24)Nc2ccccc2N=5)cc1 (stereo not drawn),> 10 µM (inactive),7.53 µM (inactive),–
CC(=O)c1ccc2c(c1)c1c(C)c3c[n+](C)ccc3c(C)c1n2C,–,–,GI50 (DMS-273): 2.39 µM (inactive); GI50 (HOP-18): 17.2 µM (inactive); GI50 (KM-20L2): 17.1 µM (inactive); GI50 (M19-MEL): 4.79 µM (inactive); GI50 (SNB-78): 4.53 µM (inactive)
CN1N=C(c2ccncc2)OC1c1cccc(F)c1 (stereo not drawn),–,> 100 µM (inactive),–
CN(C)C(=O)/C=C/c1c[nH]c(=O)[nH]c1=O,–,–,GI50 (DMS-273): > 500 µM (inactive); GI50 (HOP-18): > 500 µM (inactive); GI50 (KM-20L2): > 500 µM (inactive)
c1ccc2c(c1)ncn2CCn1ccnc1,> 100 µM (inactive),> 100 µM (inactive),–
Cc1cc(O)c(C(C)C)cc1C(=S)Nc1ccc(Cl)cc1,16.5 µM (inactive),11.6 µM (inactive),–
Cc1nc(-c2nc([N+](=O)[O-])c([N+](=O)[O-])[nH]2)cs1,–,–,GI50 (DMS-273): > 100 µM (inactive); GI50 (KM-20L2): > 100 µM (inactive); GI50 (LXFL 529): > 100 µM (inactive); GI50 (M19-MEL): > 100 µM (inactive); GI50 (RXF 631): > 100 µM (inactive); GI50 (SNB-78): > 100 µM (inactive)
OC1CN2CCS[C@H]2C(O)C1O (stereo partly drawn),> 100 µM (inactive),> 100 µM (inactive),–
Nc1ncnc2c1ncn2C1OC(CO)CC1O (stereo not drawn),29.9 µM (inactive),–,–
COc1ccc(C2=CC3CCC2C3)cc1 (stereo not drawn),–,–,GI50 (DMS-273): > 100 µM (inactive); GI50 (HOP-18): > 100 µM (inactive); GI50 (LXFL 529): 0.0535 µM (active); GI50 (SNB-78): > 100 µM (inactive)
C=CCCCC1CCCNC1=S (stereo not drawn),> 100 µM (inactive),> 100 µM (inactive),–
COc1cc2c(cc1OC)CC1c3cc(OC)c(OC)cc3CCN1CC2 (stereo not drawn),> 100 µM (inactive),> 100 µM (inactive),–
O=C1Oc2ccccc2N/C1=C/C(=O)c1ccc([N+](=O)[O-])cc1,98.2 µM (inactive),> 100 µM (inactive),–
O=C(O)C1Cc2[nH]c3ccccc3c2C2CCCC12 (stereo not drawn),–,–,GI50 (DMS-273): > 100 µM (inactive); GI50 (KM-20L2): > 100 µM (inactive); GI50 (LXFL 529): > 100 µM (inactive); GI50 (M19-MEL): > 100 µM (inactive); GI50 (SNB-78): > 100 µM (inactive)
N=c1oc2cc(O)c(O)cc2cc1C(N)=O,–,–,GI50 (DMS-273): > 100 µM (inactive); GI50 (KM-20L2): > 100 µM (inactive); GI50 (LXFL 529): > 100 µM (inactive); GI50 (M19-MEL): > 100 µM (inactive); GI50 (RXF 631): > 100 µM (inactive); GI50 (SNB-78): > 100 µM (inactive)
CC1(C)[C@@H](Cn2nnc3c(N)ncnc32)CC[C@@]1(C)CO,–,> 100 µM (inactive),–
O=C(/C=C/c1ccc2c(c1)OCO2)Cc1nc2ccccc2[nH]c1=O,43.7 µM (inactive),12 µM (inactive),–
COc1nn(Cc2ccccn2)c2ccc([N+](=O)[O-])cc12,44.4 µM (inactive),77.8 µM (inactive),–
CCOC(=O)c1cc(NC(=O)c2ccccc2)c(=O)n2c(cc3c(Cl)cccc32)c1O,> 100 µM (inactive),–,–

Compound,GI50 (BT-549),GI50 (T47D),further results
C=C(C)C(=O)OC1C(C(C)CCCO)=C(CO)CC2OC(=O)C(=C)C21 (stereo not drawn),14 µM (inactive),17.4 µM (inactive),–
CO/C(C)=N/CCC1=CCCCC1,> 100 µM (inactive),> 100 µM (inactive),–
CCC(C)NC1=NCC(C)S1 (stereo not drawn),> 100 µM (inactive),> 100 µM (inactive),–
COC(=O)c1cc(OS(=O)(=O)C(F)(F)F)c(=O)n2c1CCCC2,> 100 µM (inactive),> 100 µM (inactive),–
CC[N+](CC)(CC)/C(=N\S(=O)(=O)c1ccc(Cl)cc1)[N-]S(=O)(=O)c1cc(C)c(Cl)cc1S,–,> 100 µM (inactive),–
C=C1CC(C)(c2ccc(Nc3nc4ccccc4c4occc34)cc2)OC1=O (stereo not drawn),2.37 µM (inactive),3.03 µM (inactive),–
CCOc1ccc2nc(-c3ccc(O)cc3)sc2c1,31.1 µM (inactive),–,–
COc1ccccc1N1CCN(CCCN2C(C(=O)c3ccccc3)=C(O)c3c(C)cc(C)nc3S2(=O)=O)CC1,> 100 µM (inactive),> 100 µM (inactive),–
CCOC(=O)C(C)(C)C(O)C(C)C (stereo not drawn),> 100 µM (inactive),> 100 µM (inactive),–
CN(CCCNC(=O)c1nn(-c2ccccc2)c2c1ccc1ccccc12)CCCNC(=O)c1nn(-c2ccccc2)c2c1ccc1ccccc12,1.68 µM (inactive),1.82 µM (inactive),–
CN(C)/C(=N\C#N)N(Cc1ccccc1)Cc1ccccc1,–,–,GI50 (DMS-273): > 100 µM (inactive); GI50 (HOP-18): > 100 µM (inactive); GI50 (KM-20L2): > 100 µM (inactive); GI50 (LXFL 529): 56.5 µM (inactive); GI50 (M19-MEL): > 100 µM (inactive); GI50 (SNB-78): > 100 µM (inactive)
C=CCNC(=O)NNC(O)(C(=O)OCC)C(F)(F)F (stereo not drawn),–,> 100 µM (inactive),–
CCOC1=NC(C(F)(F)F)(C(F)(F)F)N=C(N2CCOCC2)O1,> 100 µM (inactive),27 µM (inactive),–
CCOC(=O)c1sc2nc(SC)nc3c2c1NC(=O)CN3c1ccc(F)cc1,19.5 µM (inactive),–,–
COP(=O)(O)C(N)Cc1c[nH]c2ccccc12 (stereo not drawn),–,> 100 µM (inactive),–
O=C(O)c1cc2cc(OCc3ccccc3)ccc2[nH]1,–,> 100 µM (inactive),–
Cc1ccc2nc(-c3ccc(C(C)(C)C)cc3)oc(=O)c2c1,24.4 µM (inactive),21.4 µM (inactive),–
CC1=NC(C)(C)[N+]([O-])=C1,> 10 µM (inactive),> 10 µM (inactive),–
CCCCCCCCCCCCCCCCCCOP(=O)([O-])OC1CC[N+](C)(C)CC1 [PERIFOSINE],12.2 µM (inactive),17.9 µM (inactive),GI50 (DMS-273): 2.86 µM (inactive); GI50 (KM-20L2): 2.24 µM (inactive); GI50 (LXFL 529): 4.03 µM (inactive); GI50 (M19-MEL): 4.01 µM (inactive); GI50 (SNB-78): 23.4 µM (inactive)
